# Laboratory results from patent US10987349B2, “Antitumor agent and bromodomain inhibitor” (FUJIFILM Corporation, priority 2016, dated 2021).
# How the values were obtained:
# SU-DHL-4 = experiment: Cell growth test (Cell Titer Blue) SU-DHL-4; type: cell-based; conditions: Homo sapiens, 72 h, SU-DHL-4, Lymphoma, 3 days
# Method: (§1) Moreover, the compound of Example 14 was subjected to a cell growth test using various types of cell lines.
# (§2) All cell lines other than the below-noticed cells were each seeded in a well plate, in which an RPMI-1640 medium supplemented with penicillin/streptomycin and FBS with a final concentration of 10% was placed. The human prostate cancer cell line VCaP (ATCC) was seeded in a well plate, in which DMEM medium supplemented with penicillin/streptomycin and FBS with a final concentration of 10% was placed. […] Thereafter, using Enspire Multimode Plate Reader (PerkinElmer), the amount of fluorescence at an excitation wavelength of 531 nm and a fluorescence wavelength of 615 nm was measured. Since the amount of fluorescence is in proportion to the concentration of a florescent product resorufin that is converted from resazurin as a redox dye by living cells, the amount of fluorescence was used as an indicator of the number of living cells. The growth inhibition percentage of the test compound in each concentration was calculated according to the following equation. Growth inhibition percentage (%)=(amount of fluorescence in test compound−added well)/(amount of fluorescence in DMSO−added well)×100 […]
# [1] = Intravenous administration toxicity test on rats; type: in vivo, rat
# Method: With reference to the above-described findings, the compound of the present example was administered to rats via repeated intravenous administration, and the influence of the compound on the body weight and the digestive tract was then evaluated.
# The compound of Example 14 was dissolved in a solvent (a normal saline containing 1 equivalent of hydrochloric acid), and the obtained solution was then intravenously administered to 6-week-old male SD rats (Charles River Laboratories Japan) at a dose of 30 to 60 mg/kg, once a day, for 7 days. As a negative control, a solvent administration group involving administration of a normal saline was established. At the time of the final administration, the plasma concentration of the compound of Example 14 was measured. […] Moreover, a weight reduction was not observed during the administration period. Furthermore, on the day following the final administration, pathological evaluation was carried out.
# MOLT-4 = experiment: Cell growth test (Cell Titer Blue) MOLT-4; type: cell-based; conditions: Homo sapiens, 72 h, MOLT-4, Acute lymphoblastic leukemia, 3 days
# Method: as §1, §2
# c-Myc gene = experiment: Expression of c-Myc gene in MV4-11 cells, RT-PCR; type: cell-based, human; conditions: MV4-11 cells, 10, 30 or 100 nmol/L, 6 hours
# Method: A fluctuation in the expression of c-Myc, IL-7R and HEXIM1 genes in MV4-11 (ATCC) cells treated with the test compound was analyzed according to a reverse transcription polymerase chain reaction (RT-PCR) method.
# MV4-11 cells were cultured for 6 hours in an RPMI-1640 medium supplemented with penicillin/streptomycin and FBS with a final concentration of 10%, to which the compound of Example 14 was added to a concentration of 10 nmol/L, 30 nmol/L or 100 nmol/L. On the other hand, a non-treatment group (Non-treatment) was established by culturing MV4-11 cells for 6 hours in the above-described medium, to which the compound of Example 14 was not added. Using Rneasy (registered trademark) (Qiagen), RNA was extracted from the above-described MV4-11 cells in accordance with the instruction manual included with the aforementioned device. […] Thereafter, a PCR reaction was carried out for 40 cycles (a cycle consisting of 95° C.-5 seconds and 60° C.-30 seconds.) Subsequently, the obtained reaction product was measured.
# As a housekeeping gene, the expression level of GAPDH (Glyceraldehyde 3-phosphate dehydrogenase) was also evaluated. The ratio of the expression level of the mRNA of each of c-Myc, IL-7R and HEXIM1 to the expression level of GAPDH was calculated, and the expression level of each gene (relative expression level) was then quantified. […]
# WSU-DLCL2 = experiment: Cell growth test (Cell Titer Blue) WSU-DLCL2; type: cell-based; conditions: Homo sapiens, WSUDLCL2, 72 h, WSU-DLCL2, Lymphoma, 3 days
# Method: as §1, §2
# [2] = male SD rats, intravenously 30 to 60 mg/kg, once a day, 7 days
compound,measurement,setting,value
"CCn1c(=O)cc(C2CCN(C)CC2)c2cc(C(=O)N(C)c3ccc(C)cc3)ccc21 [Example 14, 1-Ethyl-N-methyl-N-(4-methylphenyl)-4-(1-methylpiperidin-4-yl)-2-oxo-1,2-dihydroquinoline-6-carboxamide]",GI50,SU-DHL-4,49 nM
same,plasma concentration at the time of the final administration,[1]; [2],increased in proportion to the applied dose
same,weight reduction during the administration period,[1]; [2],not observed
same,pathological evaluation of gastrointestinal epithelial cells including gastrointestinal epithelial stem cells,"[1]; male SD rats, intravenously 30 to 60 mg/kg, once a day, 7 days, day following the final administration",no disorders were found
same,AUC without weight reduction relative to the AUC upon intravenous administration in Test Example 3,"[1]; rats, intravenous",3.8 times
same,GI50,MOLT-4,57 nM
same,mRNA expression of c-Myc (GAPDH correction),c-Myc gene,decreased in a compound concentration-dependent manner
same,GI50,WSU-DLCL2,91 nM
